Test results taken from ChEMBL document CHEMBL3994562 (Medchemcomm, 2016).
≈ marks a conversion by molar mass, not a printed value.

tested on: SCC-4; assay: Antiproliferative activity against human SCC4 cells; format: functional, cell-based; conditions: not given

Row | Structure (SMILES) | IC50 [µM]
1 | O=C(O)c1cc(O)c2c(c1)C(=O)c1cccc(O)c1C2=O [RHEIN] | 58

tested on: HCT-116; assay: Induction of apoptosis in human HCT116 cells after 48 hrs by annexin V-FITC/propidium iodide staining-based flow cytometric method; format: functional, cell-based; conditions: not given

Row | Structure (SMILES) | Activity
2 | Cl.Cl.O=C(OCCCCCCN1CCN(CCO)CC1)c1cc(O)c2c(c1)C(=O)c1cccc(O)c1C2=O | Dose-dependent effect

tested on: Bel-7402; assay: Antiproliferative activity in 5-FU resistant human Bel7402 cells after 72 hrs by MTT assay; format: functional, cell-based; conditions: Bel-7402, 72 h

Row | Structure (SMILES) | IC50 [µM]
3 | O=C(O)c1cc(O)c2c(c1)C(=O)c1cccc(O)c1C2=O [RHEIN] | 136
4 | O=c1[nH]cc(F)c(=O)[nH]1 [FLUOROURACIL] | 214
5 | CCN(CC)CCCCCCOC(=O)c1cc(O)c2c(c1)C(=O)c1cccc(O)c1C2=O.Cl | 7.31
6 | Cl.O=C(OCCCCCCN1CCCCC1)c1cc(O)c2c(c1)C(=O)c1cccc(O)c1C2=O | 5.95
7 | Cl.Cl.O=C(OCCCCCCN1CCN(CCO)CC1)c1cc(O)c2c(c1)C(=O)c1cccc(O)c1C2=O | 4.48

tested on: HepG2; assay: Potency index, ratio of 5-FU IC50 to compound IC50 for human HepG2 cells; format: functional; conditions: not given

Row | Structure (SMILES) | Ratio IC50
8 | CCN(CC)CCCCCCOC(=O)c1cc(O)c2c(c1)C(=O)c1cccc(O)c1C2=O.Cl | 5 - 18
9 | Cl.O=C(OCCCCCCN1CCCCC1)c1cc(O)c2c(c1)C(=O)c1cccc(O)c1C2=O | 5 - 18
10 | Cl.Cl.O=C(OCCCCCCN1CCN(CCO)CC1)c1cc(O)c2c(c1)C(=O)c1cccc(O)c1C2=O | 5 - 18

tested on: MCF7; assay: Antiproliferative activity in human MCF7 cells after 72 hrs by MTT assay; format: functional, cell-based; conditions: MCF7, 72 h

Row | Structure (SMILES) | IC50 [µM]
11 | Cl.O=C(OCCCCCN1CCOCC1)c1cc(O)c2c(c1)C(=O)c1cccc(O)c1C2=O | 9.85
12 | O=C(O)c1cc(O)c2c(c1)C(=O)c1cccc(O)c1C2=O [RHEIN] | 106
13 | O=c1[nH]cc(F)c(=O)[nH]1 [FLUOROURACIL] | 4.32
14 | CCN(CC)CCCCCCOC(=O)c1cc(O)c2c(c1)C(=O)c1cccc(O)c1C2=O.Cl | 7.56
15 | Cl.O=C(OCCCCCCN1CCCCC1)c1cc(O)c2c(c1)C(=O)c1cccc(O)c1C2=O | 5.92
16 | Cl.Cl.O=C(OCCCCCCN1CCN(CCO)CC1)c1cc(O)c2c(c1)C(=O)c1cccc(O)c1C2=O | 7.63

tested on: not listed separately; assay: Aqueous solubility of the compound in water after 48 hrs by UV spectrophotometer; format: physicochemical; conditions: not given

Row | Structure (SMILES) | solubility at 48 h [mg/mL]
17 | Cl.O=C(OCCCCCN1CCOCC1)c1cc(O)c2c(c1)C(=O)c1cccc(O)c1C2=O | 12.3
18 | O=C(O)c1cc(O)c2c(c1)C(=O)c1cccc(O)c1C2=O [RHEIN] | 0.0456 (≈ 160 µM)
19 | CCN(CC)CCCCCCOC(=O)c1cc(O)c2c(c1)C(=O)c1cccc(O)c1C2=O.Cl | 13.8
20 | Cl.O=C(OCCCCCCN1CCCCC1)c1cc(O)c2c(c1)C(=O)c1cccc(O)c1C2=O | 11
21 | Cl.Cl.O=C(OCCCCCCN1CCN(CCO)CC1)c1cc(O)c2c(c1)C(=O)c1cccc(O)c1C2=O | 15.1

tested on: MCF7; assay: Antiproliferative activity against human MCF7 cells; format: functional, cell-based; conditions: not given

Row | Structure (SMILES) | IC50 [µM]
22 | O=C(O)c1cc(O)c2c(c1)C(=O)c1cccc(O)c1C2=O [RHEIN] | 130

tested on: HCT-116; assay: Cell cycle arrest in human HCT116 cells assessed as accumulation at G2/M phase after 24 hrs by propidium iodide staining-based flow cytometric analysis; format: functional; conditions: not given

Row | Structure (SMILES) | Activity
23 | Cl.Cl.O=C(OCCCCCCN1CCN(CCO)CC1)c1cc(O)c2c(c1)C(=O)c1cccc(O)c1C2=O | Dose-dependent effect

tested on: not listed separately; assay: Antiproliferative activity against human nasopharyngeal carcinoma cells; format: functional, cell-based; conditions: Nasopharyngeal carcinoma cell

Row | Structure (SMILES) | IC50 [µM]
24 | O=C(O)c1cc(O)c2c(c1)C(=O)c1cccc(O)c1C2=O [RHEIN] | 140

tested on: A549; assay: Antiproliferative activity against human A549 cells; conditions: not given

Row | Structure (SMILES) | IC50 [µM]
25 | O=C(O)c1cc(O)c2c(c1)C(=O)c1cccc(O)c1C2=O [RHEIN] | 80

tested on: Bel-7402; assay: Antiproliferative activity against human Bel7402 cells after 24 to 72 hrs by MTT assay; format: functional, cell-based; conditions: not given

Row | Structure (SMILES) | IC50 [µM]
26 | O=C(O)c1cc(O)c2c(c1)C(=O)c1cccc(O)c1C2=O [RHEIN] | 110

tested on: HCT-116; assay: Induction of apoptosis in human HCT116 cells assessed as downregulation of CDK1 protein level after 24 hrs by Western blot method; format: functional, cell-based; conditions: not given

Row | Structure (SMILES) | Activity
27 | Cl.Cl.O=C(OCCCCCCN1CCN(CCO)CC1)c1cc(O)c2c(c1)C(=O)c1cccc(O)c1C2=O | Dose-dependent effect

tested on: HepG2; assay: Antiproliferative activity in human HepG2 cells after 72 hrs by MTT assay; format: functional, cell-based; conditions: HepG2, 72 h

Row | Structure (SMILES) | IC50 [µM]
28 | Cl.O=C(OCCCCCN1CCOCC1)c1cc(O)c2c(c1)C(=O)c1cccc(O)c1C2=O | 6.03
29 | O=C(O)c1cc(O)c2c(c1)C(=O)c1cccc(O)c1C2=O [RHEIN] | 101
30 | O=c1[nH]cc(F)c(=O)[nH]1 [FLUOROURACIL] | 5.82
31 | CCN(CC)CCCCCCOC(=O)c1cc(O)c2c(c1)C(=O)c1cccc(O)c1C2=O.Cl | 0.33
32 | Cl.O=C(OCCCCCCN1CCCCC1)c1cc(O)c2c(c1)C(=O)c1cccc(O)c1C2=O | 0.52
33 | Cl.Cl.O=C(OCCCCCCN1CCN(CCO)CC1)c1cc(O)c2c(c1)C(=O)c1cccc(O)c1C2=O | 0.85

tested on: A549; assay: Antiproliferative activity in human A549 cells after 72 hrs by MTT assay; format: functional, cell-based; conditions: A549, 72 h

Row | Structure (SMILES) | IC50 [µM]
34 | Cl.O=C(OCCCCCN1CCOCC1)c1cc(O)c2c(c1)C(=O)c1cccc(O)c1C2=O | 10.8
35 | O=C(O)c1cc(O)c2c(c1)C(=O)c1cccc(O)c1C2=O [RHEIN] | 120
36 | O=c1[nH]cc(F)c(=O)[nH]1 [FLUOROURACIL] | 10.3
37 | CCN(CC)CCCCCCOC(=O)c1cc(O)c2c(c1)C(=O)c1cccc(O)c1C2=O.Cl | 4.39
38 | Cl.O=C(OCCCCCCN1CCCCC1)c1cc(O)c2c(c1)C(=O)c1cccc(O)c1C2=O | 3.01
39 | Cl.Cl.O=C(OCCCCCCN1CCN(CCO)CC1)c1cc(O)c2c(c1)C(=O)c1cccc(O)c1C2=O | 5.28

tested on: HepG2; assay: Antiproliferative activity against human HepG2 cells; conditions: not given

Row | Structure (SMILES) | IC50 [µM]
40 | O=C(O)c1cc(O)c2c(c1)C(=O)c1cccc(O)c1C2=O [RHEIN] | 710

tested on: HL-60; assay: Antiproliferative activity against human HL60 cells; format: functional, cell-based; conditions: not given

Row | Structure (SMILES) | IC50 [µM]
41 | O=C(O)c1cc(O)c2c(c1)C(=O)c1cccc(O)c1C2=O [RHEIN] | 100

tested on: SGC-7901; assay: Antiproliferative activity against human SGC7901 cells after 24 to 72 hrs by MTT assay; format: functional, cell-based; conditions: not given

Row | Structure (SMILES) | IC50 [µM]
42 | O=C(O)c1cc(O)c2c(c1)C(=O)c1cccc(O)c1C2=O [RHEIN] | 150

tested on: HCT-116; assay: Antiproliferative activity in human HCT116 cells after 72 hrs by MTT assay; format: functional, cell-based; conditions: HCT-116, 72 h

Row | Structure (SMILES) | IC50 [µM]
43 | Cl.O=C(OCCCCCN1CCOCC1)c1cc(O)c2c(c1)C(=O)c1cccc(O)c1C2=O | 8.73
44 | O=C(O)c1cc(O)c2c(c1)C(=O)c1cccc(O)c1C2=O [RHEIN] | 116
45 | O=c1[nH]cc(F)c(=O)[nH]1 [FLUOROURACIL] | 4.3
46 | CCN(CC)CCCCCCOC(=O)c1cc(O)c2c(c1)C(=O)c1cccc(O)c1C2=O.Cl | 0.83
47 | Cl.O=C(OCCCCCCN1CCCCC1)c1cc(O)c2c(c1)C(=O)c1cccc(O)c1C2=O | 0.48
48 | Cl.Cl.O=C(OCCCCCCN1CCN(CCO)CC1)c1cc(O)c2c(c1)C(=O)c1cccc(O)c1C2=O | 0.31

tested on: HCT-116; assay: Induction of apoptosis in human HCT116 cells at 4 uM after 48 hrs by annexin V-FITC/propidium iodide staining-based flow cytometric method; format: functional; conditions: not given

Row | Structure (SMILES) | Activity [%]
49 | Cl.Cl.O=C(OCCCCCCN1CCN(CCO)CC1)c1cc(O)c2c(c1)C(=O)c1cccc(O)c1C2=O | 56.08

tested on: HCT-116; assay: Cell cycle arrest in human HCT116 cells assessed as decrease in cell population at G0/G1 phase after 24 hrs by propidium iodide staining-based flow cytometric analysis; format: functional; conditions: not given

Row | Structure (SMILES) | Activity
50 | Cl.Cl.O=C(OCCCCCCN1CCN(CCO)CC1)c1cc(O)c2c(c1)C(=O)c1cccc(O)c1C2=O | Dose-dependent effect

tested on: HCT-116; assay: Induction of apoptosis in human HCT116 cells assessed as downregulation of cyclin B protein level after 24 hrs by Western blot method; format: functional, cell-based; conditions: not given

Row | Structure (SMILES) | Activity
51 | Cl.Cl.O=C(OCCCCCCN1CCN(CCO)CC1)c1cc(O)c2c(c1)C(=O)c1cccc(O)c1C2=O | Dose-dependent effect

tested on: Bel-7402; assay: Antiproliferative activity in human Bel7402 cells after 72 hrs by MTT assay; format: functional, cell-based; conditions: Bel-7402, 72 h

Row | Structure (SMILES) | IC50 [µM]
52 | O=C(O)c1cc(O)c2c(c1)C(=O)c1cccc(O)c1C2=O [RHEIN] | 120
53 | O=c1[nH]cc(F)c(=O)[nH]1 [FLUOROURACIL] | 7.57
54 | CCN(CC)CCCCCCOC(=O)c1cc(O)c2c(c1)C(=O)c1cccc(O)c1C2=O.Cl | 6.49
55 | Cl.O=C(OCCCCCCN1CCCCC1)c1cc(O)c2c(c1)C(=O)c1cccc(O)c1C2=O | 3.95
56 | Cl.Cl.O=C(OCCCCCCN1CCN(CCO)CC1)c1cc(O)c2c(c1)C(=O)c1cccc(O)c1C2=O | 2.36

tested on: HCT-116; assay: Potency index, ratio of 5-FU IC50 to compound IC50 for human HCT116 cells; format: functional; conditions: not given

Row | Structure (SMILES) | Ratio IC50
57 | CCN(CC)CCCCCCOC(=O)c1cc(O)c2c(c1)C(=O)c1cccc(O)c1C2=O.Cl | 5 - 18
58 | Cl.O=C(OCCCCCCN1CCCCC1)c1cc(O)c2c(c1)C(=O)c1cccc(O)c1C2=O | 5 - 18
59 | Cl.Cl.O=C(OCCCCCCN1CCN(CCO)CC1)c1cc(O)c2c(c1)C(=O)c1cccc(O)c1C2=O | 5 - 18
